{
  "source": "patent US20200255492A1",
  "about": "“LEPTIN PEPTIDES AND THEIR USE FOR TREATING NEUROLOGICAL DISORDERS” (UNIVERSITY OF DUNDEE, priority 2017, published 2020)",
  "key": {"[1]": {"tested_on": "differentiated human neural cells (SH-SY5Y)", "assay": "Crystal violet assay of cell number", "format": "cell-based", "experimental": "The human neuroblastoma cell line, SH-SY5Y (ECACC, UK) was maintained in Dulbecco's Modified Eagle Medium supplemented with glucose ([…]) and 10% (v/v) cosmic calf serum (Fisher Scientific, UK) at 37° C. in a humidified atmosphere of 5% CO2, 95% air and allowed to reach 70-80% confluence before seeding. Cells (passage 10-18) were plated at 10 000 cells per well in 96 well tissue culture plates (Nunc, VWR, UK) and at a density of 2×10^5 cells in 35 mm dishes for protein extraction. To induce differentiation, cells were cultured in DMEM supplemented with glucose ([…]), 1% (v/v) cosmic calf serum and 10 μM retinoic acid for 5 days. Thereafter they were incubated in DMEM supplemented with glucose ([…]), serum replacement 2 (2%; Sigma, UK) and 18 μM 5-fluorodeoxyuridine to inhibit proliferation of undifferentiated cells. The 50% of the medium was changed every 2-3 days and pharmacological treatment was carried out 7 days after switching to this medium. Reagents used were (from Sigma UK unless stated) 0.1-10 nM human leptin and leptin (116-130); 0.1-10 nM leptin (22-56; Bachem; Switzerland); 10 nM leptin (116-121) leptin (117-122), leptin (124-129) or leptin (125-130; all Severn Biotech, UK); 5 μM copper chloride; […], 5 μM WP1066 or 50 nM wortmannin. All treatments were added to the culture at the same time and survival assays were carried out after 96 h treatment. Protein samples for signaling ELISA were extracted 3 h after exposure to the relevant reagents and for biomarker expression after 72 hours.\n(§1) The concentration of lactate dehydrogenase (LDH) in the culture medium or the mitochondrial activity within cells was used to monitor the level of cell death, as previously (Oldreive and Doherty 2010). In certain experiments, a Crystal violet assay was used to assess total cell number. Cells were fixed in neutral buffered formalin and washed 3 times in PBS prior to staining with 0.01% crystal violet acetate for 5 min. Plates were washed 5-10 times in dH2O and cells solubilised in 100 μl dimethyl sulfoxide (DMSO) before reading the absorbance on a Biohit BP100 plate reader. For all assays, data is expressed as percentage relative to control, untreated wells to normalize for differences in plating density between individual experiments.\nIn parallel studies a crystal violet assay was used to verify these findings by assessing cell number. In CuCl2-treated cells, there was a concentration-dependent increase in the survival of cells treated with either leptin or leptin (116-130). […] Treatment with leptin (116-130) also mirrored leptin action by increasing cell viability in Aβ1-42-treated cultures as cell number increased by 19.2±15% and 44.3±7.5% after treatment with 0.1 nM or 10 nM leptin, respectively (n=5 for each; P<0.01)."}, "acute hippocampal slices": {"tested_on": "acute hippocampal slices", "assay": "HFS-induced LTP with leptin hexamers", "format": "cell-based, Sprague Dawley rats", "details": "10 nM for 50 min prior to HFS; control LTP 117±10.8% / 125±4.9%", "experimental": "Parasagittal hippocampal slices (300 μm) were prepared from either P13-21 or 12-24-week-old male Sprague Dawley rats as previously (Moult et al. 2010). Brains were rapidly removed and placed in ice-cold artificial CSF (aCSF; bubbled with 95% O2 and 5% CO2) containing the following (in mm): 124 NaCl, 3 KCl, 26 NaHCO3, 1.25 NaH2PO4, 2 CaCl2, 1 MgSO4, and 10 d-glucose. Once prepared, parasagittal slices were allowed to recover at room temperature in oxygenated aCSF for 1 h before use. Slices were transferred to a submerged chamber maintained at room temperature and perfused with artificial cerebrospinal fluid at 2 ml min^−1. Standard extracellular recordings were used to monitor evoked field excitatory postsynaptic potentials (fEPSP) from stratum radiatum. The Schaffer collateral-commissural pathway was stimulated (constant voltage; 0.1 ms) at 0.033 Hz, using a stimulus intensity that evoked a peak amplitude ˜50% of the maximum. Synaptic potentials were low pass filtered at 2 kHz and digitally sampled at 10 kHz. The fEPSP slope was measured and expressed relative to baseline. Synaptic records are the average of 4 consecutive responses and stimulus artefacts are blanked for clarity. Recordings were made using an Axopatch 200B amplifier and analyzed using LTP v2.4 software. In synaptic plasticity studies, the degree of potentiation was calculated 30-35 min after HFS and expressed as a percentage of baseline±standard error of mean (SEM).\nTo determine if the leptin hexamers influence the magnitude of activity-dependent synaptic plasticity, standard extracellular recording techniques were used to assess the effects of leptin (116-121, 117-122, 118-123, 120-125, 124-129 and 125-130) on the magnitude of LTP induced by high frequency stimulation (100 Hz, 1 s) in acute hippocampal slices. […] In parallel studies, application of leptin (118-123; 158±3.8%; n=7; p<0.05; FIG. 8) or leptin (120-125; to 163±8.8% of baseline; n=5; p<0.05) also facilitated LTP, compared to control LTP (FIG. 8)."}, "[2]": {"tested_on": "leptin-deficient ob/ob mice", "details": "cited from earlier work"}, "SH-SY5Y": {"tested_on": "SH-SY5Y", "assay": "Cell survival with Aβ1-42 and leptin (22-56) (data not shown)", "format": "cell-based, human", "experimental": "The human neuroblastoma cell line, SH-SY5Y (ECACC, UK) was maintained in Dulbecco's Modified Eagle Medium supplemented with glucose ([…]) and 10% (v/v) cosmic calf serum (Fisher Scientific, UK) at 37° C. in a humidified atmosphere of 5% CO2, 95% air and allowed to reach 70-80% confluence before seeding. Cells (passage 10-18) were plated at 10 000 cells per well in 96 well tissue culture plates (Nunc, VWR, UK) and at a density of 2×10^5 cells in 35 mm dishes for protein extraction. To induce differentiation, cells were cultured in DMEM supplemented with glucose ([…]), 1% (v/v) cosmic calf serum and 10 μM retinoic acid for 5 days. Thereafter they were incubated in DMEM supplemented with glucose ([…]), serum replacement 2 (2%; Sigma, UK) and 18 μM 5-fluorodeoxyuridine to inhibit proliferation of undifferentiated cells. […]\nas §1, with “In certain experiments, a Crystal violet assay was used to assess total cell number. Cells were fixed in neutral buffered formalin and washed 3 times in PBS prior to staining with 0.01% crystal violet acetate for 5 min.” left out, “experiments. […]” for “experiments.”"}},
  "data": [
    {"substance": "leptin: the metabolic hormone leptin, whole (full length) leptin molecule; human leptin from Sigma in SH-SY5Y work", "values": [
      {"measurement": "increase in cell number, Aβ1-42-treated cultures", "setting": "[1]; 0.1 nM", "result": "19.2±15", "unit": "%"},
      {"measurement": "increase in cell number, CuCl2-treated cells", "setting": "[1]; 0.1 nM", "result": "16.7±3.4", "unit": "%"},
      {"measurement": "increase in cell number, Aβ1-42-treated cultures", "setting": "[1]; 10 nM", "result": "44.3±7.5", "unit": "%"},
      {"measurement": "increase in cell number, CuCl2-treated cells", "setting": "[1]; 10 nM", "result": "43.4±9.2", "unit": "%"}
    ]},
    {"substance": "CSLPQT (listed as Mus musculus) [leptin (117-122)]", "values": [
      {"measurement": "magnitude of LTP after HFS (100 Hz, 1 s)", "setting": "acute hippocampal slices", "result": "191±19.7 % of baseline"}
    ]},
    {"substance": "SCSLPQ (listed as Mus musculus) [leptin (116-121)]", "values": [
      {"measurement": "body weight", "setting": "[2]", "result": "reduced food intake and body weight"},
      {"measurement": "food intake", "setting": "[2]", "result": "reduced food intake and body weight"},
      {"measurement": "magnitude of LTP after HFS (100 Hz, 1 s)", "setting": "acute hippocampal slices", "result": "162±6.3 % of baseline"}
    ]},
    {"substance": "leptin (22-56): leptin fragment amino acids 22-56 (Bachem), comparison fragment (VPIQKVQDDTKTLIKTIVTRINDISHTQSVSSKQK; UniProt P41159 22-56, looked up, fragment) [reference compound]", "values": [
      {"measurement": "survival in Aβ1-42 treated cells", "setting": "SH-SY5Y; Aβ1-42 with 10 nM leptin (22-56)", "result": "48.6±9.3", "unit": "%"}
    ]},
    {"substance": "SCSLPQTSGLQKPES (listed as Mus musculus) [leptin (116-130)]", "values": [
      {"measurement": "increase in cell number, Aβ1-42-treated cultures", "setting": "[1]; 0.1 nM", "result": "29.4±9.4", "unit": "%"},
      {"measurement": "increase in cell number, CuCl2-treated cells", "setting": "[1]; 0.1 nM", "result": "27.8±10.6", "unit": "%"},
      {"measurement": "increase in cell number, Aβ1-42-treated cultures", "setting": "[1]; 10 nM", "result": "51.8±6.3", "unit": "%"},
      {"measurement": "increase in cell number, CuCl2-treated cells", "setting": "[1]; 10 nM", "result": "39.9±13.5", "unit": "%"},
      {"measurement": "body weight", "setting": "[2]", "result": "reduced food intake and body weight"},
      {"measurement": "food intake", "setting": "[2]", "result": "reduced food intake and body weight"}
    ]},
    {"substance": "Aβ1-42: amyloid beta 1-42, toxin used in the AD models [reference compound]", "values": [
      {"measurement": "survival following Aβ1-42 treatment", "setting": "SH-SY5Y; Aβ1-42 alone", "result": "41.2±5.8", "unit": "% survival"}
    ]}
  ]
}
